Results: ChEMBL document CHEMBL5608113, “Targeting of CAF-induced therapy resistance in CRC organoid-stroma co-cultures” (2024)

system: Colon cancer organoid; assay: Targeting of F14 CAF-induced therapy resistance in O23 CRC organoid-stroma co-culture. Cell viability is reported without Gefitinib.; assay type: functional, Homo sapiens; details: Homo sapiens, Concentration 10 uM; read-out: Cell Viability

| SMILES | viability at 10 µM [%] |
| --- | --- |
| COc1ccc2c(O[C@@H]3C[C@H]4C(=O)N[C@]5(C(=O)O)CC5/C=C\CCCCC[C@H](NC(=O)OC5CCCC5)C(=O)N4C3)cc(-c3csc(NC(=O)C(C)C)n3)nc2c1C (stereo not given in full) [BI 1230] | 141 |
| COc1cc(C(=O)O)ncc1C#Cc1ccccc1NS(=O)(=O)c1cccc2c(N(C)C)ccnc12 [MSC-0516] | 131 |
| CNC(=O)c1ccc(Nc2ncc(C(F)(F)F)c(NCc3nccnc3N(C)S(C)(=O)=O)n2)cc1 [DEFACTINIB] | 78.6 |
| CCOC(=O)c1c(/C(C#N)=C\N)c2ccc(Cl)c(Cl)c2n1C | 99.7 |
| Cc1nc(N2CC[C@H](O)C2)ncc1-c1cc(C(F)(F)F)cc2[nH]ncc12 | 123 |
| CCOC(=O)CCNc1cc(N2CCc3ccccc3CC2)nc(-c2ccccn2)n1 | 155 |
| CN([C@@H]1CCc2c(CC(=O)O)c3cc(S(C)(=O)=O)ccc3n2C1)S(=O)(=O)c1ccc(F)cc1 [CRTH2-negative-control] | 76.2 |
| COc1cc(OC)cc(-c2noc(N3CCN(C)C4(CCN(c5ccnc(C)c5)CC4)C3)n2)c1 | 108 |
| Cc1cc(CN)cc(C)c1-c1ncn(C)c1-c1ccnc2cc(F)ccc12 | 122 |
| CN1CCN(c2ccc(-c3cccc(CN4CCOCC4)c3)cc2NC(=O)c2c[nH]c(=O)cc2C(F)(F)F)CC1 | 131 |
| CC1=C(C)C(=O)C(C(C)(C)CC(=O)N(CCCCSC[C@H]2O[C@@H](n3cnc4c(N)ncnc43)[C@H](O)[C@@H]2O)Cc2cccc(-c3ccc(Cl)cc3)c2)=C(C)C1=O | 92.3 |
| CC(=O)C1=C(C)N(c2cccc(C(F)(F)F)c2)C(=O)N[C@H]1c1ccc(C#N)nc1 [BAY-677] | 93.5 |
| Cc1cn(-c2cc(NC(=O)c3ccc4c(c3)CN(c3cncnc3)C[C@@H]4C)cc(C(F)(F)F)c2)cn1 | 115 |
| CC1(C)C(N)=Nc2cc(OCCCCN3Cc4ccc(OCc5cn(CC(=O)N6CCC(CCN7CCCC7)CC6)nn5)cc4C3)c(OCC3CC3)cc21 | 86.3 |
| CN(C)C(=O)c1ccc(-c2cc(C(=O)N(C)C3CCCC3)no2)cc1O | 111 |

system: Colon cancer organoid; assay: Targeting of F14 CAF-induced therapy resistance in O23 CRC organoid-stroma co-culture. Cell viability is reported with Gefitinib.; assay type: functional, Homo sapiens; details: Homo sapiens, Concentration 10 uM; read-out: Cell Viability

| SMILES | viability at 10 µM [%] |
| --- | --- |
| COc1ccc2c(O[C@@H]3C[C@H]4C(=O)N[C@]5(C(=O)O)CC5/C=C\CCCCC[C@H](NC(=O)OC5CCCC5)C(=O)N4C3)cc(-c3csc(NC(=O)C(C)C)n3)nc2c1C (stereo not given in full) [BI 1230] | 63.1 |
| COc1cc(C(=O)O)ncc1C#Cc1ccccc1NS(=O)(=O)c1cccc2c(N(C)C)ccnc12 [MSC-0516] | 47.7 |
| CNC(=O)c1ccc(Nc2ncc(C(F)(F)F)c(NCc3nccnc3N(C)S(C)(=O)=O)n2)cc1 [DEFACTINIB] | 40.5 |
| CCOC(=O)c1c(/C(C#N)=C\N)c2ccc(Cl)c(Cl)c2n1C | 52 |
| Cc1nc(N2CC[C@H](O)C2)ncc1-c1cc(C(F)(F)F)cc2[nH]ncc12 | 51.5 |
| CCOC(=O)CCNc1cc(N2CCc3ccccc3CC2)nc(-c2ccccn2)n1 | 59.2 |
| CN([C@@H]1CCc2c(CC(=O)O)c3cc(S(C)(=O)=O)ccc3n2C1)S(=O)(=O)c1ccc(F)cc1 [CRTH2-negative-control] | 24.9 |
| COc1cc(OC)cc(-c2noc(N3CCN(C)C4(CCN(c5ccnc(C)c5)CC4)C3)n2)c1 | 74.2 |
| Cc1cc(CN)cc(C)c1-c1ncn(C)c1-c1ccnc2cc(F)ccc12 | 53.8 |
| CN1CCN(c2ccc(-c3cccc(CN4CCOCC4)c3)cc2NC(=O)c2c[nH]c(=O)cc2C(F)(F)F)CC1 | 62.5 |
| CC1=C(C)C(=O)C(C(C)(C)CC(=O)N(CCCCSC[C@H]2O[C@@H](n3cnc4c(N)ncnc43)[C@H](O)[C@@H]2O)Cc2cccc(-c3ccc(Cl)cc3)c2)=C(C)C1=O | 57.2 |
| CC(=O)C1=C(C)N(c2cccc(C(F)(F)F)c2)C(=O)N[C@H]1c1ccc(C#N)nc1 [BAY-677] | 51.7 |
| Cc1cn(-c2cc(NC(=O)c3ccc4c(c3)CN(c3cncnc3)C[C@@H]4C)cc(C(F)(F)F)c2)cn1 | 63.8 |
| CC1(C)C(N)=Nc2cc(OCCCCN3Cc4ccc(OCc5cn(CC(=O)N6CCC(CCN7CCCC7)CC6)nn5)cc4C3)c(OCC3CC3)cc21 | 44 |
| CN(C)C(=O)c1ccc(-c2cc(C(=O)N(C)C3CCCC3)no2)cc1O | 55.9 |

system: Colon cancer organoid; assay: Targeting of F14 CAF-induced therapy resistance in O14 CRC organoid-stroma co-culture. Cell viability is reported without Gefitinib.; assay type: functional, Homo sapiens; details: Homo sapiens, Concentration 10 uM; read-out: Cell Viability

| SMILES | viability at 10 µM [%] |
| --- | --- |
| COc1ccc2c(O[C@@H]3C[C@H]4C(=O)N[C@]5(C(=O)O)CC5/C=C\CCCCC[C@H](NC(=O)OC5CCCC5)C(=O)N4C3)cc(-c3csc(NC(=O)C(C)C)n3)nc2c1C (stereo not given in full) [BI 1230] | 152 |
| COc1cc(C(=O)O)ncc1C#Cc1ccccc1NS(=O)(=O)c1cccc2c(N(C)C)ccnc12 [MSC-0516] | 117 |
| CNC(=O)c1ccc(Nc2ncc(C(F)(F)F)c(NCc3nccnc3N(C)S(C)(=O)=O)n2)cc1 [DEFACTINIB] | 76.8 |
| CCOC(=O)c1c(/C(C#N)=C\N)c2ccc(Cl)c(Cl)c2n1C | 106 |
| Cc1nc(N2CC[C@H](O)C2)ncc1-c1cc(C(F)(F)F)cc2[nH]ncc12 | 91 |
| CCOC(=O)CCNc1cc(N2CCc3ccccc3CC2)nc(-c2ccccn2)n1 | 93.3 |
| CN([C@@H]1CCc2c(CC(=O)O)c3cc(S(C)(=O)=O)ccc3n2C1)S(=O)(=O)c1ccc(F)cc1 [CRTH2-negative-control] | 98.2 |
| COc1cc(OC)cc(-c2noc(N3CCN(C)C4(CCN(c5ccnc(C)c5)CC4)C3)n2)c1 | 103 |
| Cc1cc(CN)cc(C)c1-c1ncn(C)c1-c1ccnc2cc(F)ccc12 | 90.5 |
| CN1CCN(c2ccc(-c3cccc(CN4CCOCC4)c3)cc2NC(=O)c2c[nH]c(=O)cc2C(F)(F)F)CC1 | 99.7 |
| CC1=C(C)C(=O)C(C(C)(C)CC(=O)N(CCCCSC[C@H]2O[C@@H](n3cnc4c(N)ncnc43)[C@H](O)[C@@H]2O)Cc2cccc(-c3ccc(Cl)cc3)c2)=C(C)C1=O | 89.1 |
| CC(=O)C1=C(C)N(c2cccc(C(F)(F)F)c2)C(=O)N[C@H]1c1ccc(C#N)nc1 [BAY-677] | 107 |
| Cc1cn(-c2cc(NC(=O)c3ccc4c(c3)CN(c3cncnc3)C[C@@H]4C)cc(C(F)(F)F)c2)cn1 | 149 |
| CC1(C)C(N)=Nc2cc(OCCCCN3Cc4ccc(OCc5cn(CC(=O)N6CCC(CCN7CCCC7)CC6)nn5)cc4C3)c(OCC3CC3)cc21 | 107 |
| CN(C)C(=O)c1ccc(-c2cc(C(=O)N(C)C3CCCC3)no2)cc1O | 103 |

system: Colon cancer organoid; assay: Targeting of F14 CAF-induced therapy resistance in O23 CRC organoid-stroma co-culture. Cell viability is reported with SN-38.; assay type: functional, Homo sapiens; details: Homo sapiens, Concentration 10 uM; read-out: Cell Viability

| SMILES | viability at 10 µM [%] |
| --- | --- |
| COc1ccc2c(O[C@@H]3C[C@H]4C(=O)N[C@]5(C(=O)O)CC5/C=C\CCCCC[C@H](NC(=O)OC5CCCC5)C(=O)N4C3)cc(-c3csc(NC(=O)C(C)C)n3)nc2c1C (stereo not given in full) [BI 1230] | 77.1 |
| COc1cc(C(=O)O)ncc1C#Cc1ccccc1NS(=O)(=O)c1cccc2c(N(C)C)ccnc12 [MSC-0516] | 79.4 |
| CNC(=O)c1ccc(Nc2ncc(C(F)(F)F)c(NCc3nccnc3N(C)S(C)(=O)=O)n2)cc1 [DEFACTINIB] | 39.9 |
| CCOC(=O)c1c(/C(C#N)=C\N)c2ccc(Cl)c(Cl)c2n1C | 68.1 |
| Cc1nc(N2CC[C@H](O)C2)ncc1-c1cc(C(F)(F)F)cc2[nH]ncc12 | 82.7 |
| CCOC(=O)CCNc1cc(N2CCc3ccccc3CC2)nc(-c2ccccn2)n1 | 121 |
| CN([C@@H]1CCc2c(CC(=O)O)c3cc(S(C)(=O)=O)ccc3n2C1)S(=O)(=O)c1ccc(F)cc1 [CRTH2-negative-control] | 54.8 |
| COc1cc(OC)cc(-c2noc(N3CCN(C)C4(CCN(c5ccnc(C)c5)CC4)C3)n2)c1 | 101 |
| Cc1cc(CN)cc(C)c1-c1ncn(C)c1-c1ccnc2cc(F)ccc12 | 86.8 |
| CN1CCN(c2ccc(-c3cccc(CN4CCOCC4)c3)cc2NC(=O)c2c[nH]c(=O)cc2C(F)(F)F)CC1 | 102 |
| CC1=C(C)C(=O)C(C(C)(C)CC(=O)N(CCCCSC[C@H]2O[C@@H](n3cnc4c(N)ncnc43)[C@H](O)[C@@H]2O)Cc2cccc(-c3ccc(Cl)cc3)c2)=C(C)C1=O | 69.9 |
| CC(=O)C1=C(C)N(c2cccc(C(F)(F)F)c2)C(=O)N[C@H]1c1ccc(C#N)nc1 [BAY-677] | 75 |
| Cc1cn(-c2cc(NC(=O)c3ccc4c(c3)CN(c3cncnc3)C[C@@H]4C)cc(C(F)(F)F)c2)cn1 | 57.5 |
| CC1(C)C(N)=Nc2cc(OCCCCN3Cc4ccc(OCc5cn(CC(=O)N6CCC(CCN7CCCC7)CC6)nn5)cc4C3)c(OCC3CC3)cc21 | 78.3 |
| CN(C)C(=O)c1ccc(-c2cc(C(=O)N(C)C3CCCC3)no2)cc1O | 76.4 |

system: Colon cancer organoid; assay: Targeting of F14 CAF-induced therapy resistance in O14 CRC organoid-stroma co-culture. Cell viability is reported with Gefitinib.; assay type: functional, Homo sapiens; details: Homo sapiens, Concentration 10 uM; read-out: Cell Viability

| SMILES | viability at 10 µM [%] |
| --- | --- |
| COc1ccc2c(O[C@@H]3C[C@H]4C(=O)N[C@]5(C(=O)O)CC5/C=C\CCCCC[C@H](NC(=O)OC5CCCC5)C(=O)N4C3)cc(-c3csc(NC(=O)C(C)C)n3)nc2c1C (stereo not given in full) [BI 1230] | 50 |
| COc1cc(C(=O)O)ncc1C#Cc1ccccc1NS(=O)(=O)c1cccc2c(N(C)C)ccnc12 [MSC-0516] | 45.9 |
| CNC(=O)c1ccc(Nc2ncc(C(F)(F)F)c(NCc3nccnc3N(C)S(C)(=O)=O)n2)cc1 [DEFACTINIB] | 17.9 |
| CCOC(=O)c1c(/C(C#N)=C\N)c2ccc(Cl)c(Cl)c2n1C | 47.7 |
| Cc1nc(N2CC[C@H](O)C2)ncc1-c1cc(C(F)(F)F)cc2[nH]ncc12 | 21.1 |
| CCOC(=O)CCNc1cc(N2CCc3ccccc3CC2)nc(-c2ccccn2)n1 | 59.5 |
| CN([C@@H]1CCc2c(CC(=O)O)c3cc(S(C)(=O)=O)ccc3n2C1)S(=O)(=O)c1ccc(F)cc1 [CRTH2-negative-control] | 37 |
| COc1cc(OC)cc(-c2noc(N3CCN(C)C4(CCN(c5ccnc(C)c5)CC4)C3)n2)c1 | 49.2 |
| Cc1cc(CN)cc(C)c1-c1ncn(C)c1-c1ccnc2cc(F)ccc12 | 63.2 |
| CN1CCN(c2ccc(-c3cccc(CN4CCOCC4)c3)cc2NC(=O)c2c[nH]c(=O)cc2C(F)(F)F)CC1 | 65.8 |
| CC1=C(C)C(=O)C(C(C)(C)CC(=O)N(CCCCSC[C@H]2O[C@@H](n3cnc4c(N)ncnc43)[C@H](O)[C@@H]2O)Cc2cccc(-c3ccc(Cl)cc3)c2)=C(C)C1=O | 59.5 |
| CC(=O)C1=C(C)N(c2cccc(C(F)(F)F)c2)C(=O)N[C@H]1c1ccc(C#N)nc1 [BAY-677] | 57.5 |
| Cc1cn(-c2cc(NC(=O)c3ccc4c(c3)CN(c3cncnc3)C[C@@H]4C)cc(C(F)(F)F)c2)cn1 | 50.6 |
| CC1(C)C(N)=Nc2cc(OCCCCN3Cc4ccc(OCc5cn(CC(=O)N6CCC(CCN7CCCC7)CC6)nn5)cc4C3)c(OCC3CC3)cc21 | 45.4 |
| CN(C)C(=O)c1ccc(-c2cc(C(=O)N(C)C3CCCC3)no2)cc1O | 52.8 |
